Source: ChEMBL document CHEMBL1127693, “Novel isoxazoles which interact with brain cholinergic channel receptors have intrinsic cognitive enhancing and anxiolytic activities” (J Med Chem, 1994)
pKi: −log10 of the molar value.

Legend:
[1] = Binding affinity at CCR was determined by displacement of [125I]- alpha-BgT from rat brain; format: tissue-based
[2] = Binding affinity at CCR was determined by displacement of [3H]cytisine from rat brain; format: tissue-based
[3] = Binding affinity at CCR was determined by displacement of [125I]- alpha-BgT from Torpedo californica electroplax; set-up: species or system Tetronarce californica
[4] = target: Muscarinic acetylcholine receptor (Rattus norvegicus); test: Binding affinity at muscarinic receptor was determined by displacement of [3H]OXO-M from rat brain
[5] = Binding affinity at CCR was determined by displacement of [3H]nicotine from rat brain; format: tissue-based

| Structure (SMILES) | pKi [1] | pKi [2] | pKi [3] | pKi [4] | pKi [5] |
| --- | --- | --- | --- | --- | --- |
| Cc1cc([C@@H]2CCCN2)on1 | < 4.70 | 6.48 | < 4.70 | < 4.70 | – |
| c1cncc([C@H]2CCCN2)c1 | – | – | 6.52 | – | 7.39 |
| Cc1cc([C@H]2CCCN2C)on1 | – | 7.36 | – | – | – |
| Cc1cc([C@H]2CCCN2)on1 | < 4.70 | 8.13 | 5.47 | 5.10 | – |
| CN1CCC[C@H]1c1cccnc1 [NICOTINE] | – | – | – | – | 8.85 |
| c1cncc([C@@H]2CCCN2)c1 [NORNICOTINE] | – | – | 4.96 | – | 7.25 |
| CN1CCC[C@@H]1c1cccnc1 [R-NICOTINE] | – | – | – | – | 7.49 |
